Values joined by “and” are separate entries in the source; they are usually repeats but may differ in a detail not shown here. Identical values can stand only once.
Each compound was assayed on P. falciparum 3D7 growth, pLDH absorbance (assay: blood-stage malaria parasite growth potency – strain 3D7, dose response (AID 2305)).
Work on `CC(Cc1ccc(NC(=O)COc2ccc(CC(C)NCCc3cccc(Cl)c3)cc2)cc1)NCCc1cccc(Cl)c1` (stereo unspecified) yielded an IC50 of 0.08 µM. Compound `COc1ccc(-c2nccc(NC(N)=NCc3ccccc3)n2)cc1` has an IC50 of 0.67 µM. `CCC(NCc1ccc(-c2cncc(C(=O)NCC(C)C)c2)cc1)c1ccccc1` (stereo unspecified) was tested, and the IC50 was 0.94 µM. `COc1ccc(CN2CCC(NCc3cccc(-n4ccnc4)c3)CC2)cc1` showed an IC50 of 0.63 µM. `O=C(Nc1ccc(OC2CCN(Cc3ccsc3)CC2)c(Cl)c1)c1ccco1` gave an IC50 of 0.78 µM. `Cc1ccc(Cn2nc(Cl)c(N3CCCNCC3)cc2=O)cc1NC(=O)Nc1ccc(-c2ccccc2)cc1` gave an IC50 of 0.67 µM. `Cc1ccc(C(=O)Nc2ccc(Cl)c(N3CCN(CCc4ccccc4)CC3)c2)cc1` was tested, and the IC50 was 0.93 µM. With `O=C(Oc1ccc(C2CNCCc3c2cc(OC(=O)c2ccc(O)cc2)c(OC(=O)c2ccc(O)cc2)c3Cl)cc1)c1ccc(O)cc1` (stereo unspecified) the IC50 was 0.98 µM. `CCc1ccc(C2CCN(CCCCNC(=O)c3ccc(NC(=O)c4ccc(Cl)cc4)cc3)CC2)c(OCCO)c1` gave an IC50 of 1.39 µM. For `CN1CCN(c2ccc(Nc3ncc([N+](=O)[O-])c(Nc4ccccc4O)n3)cc2)CC1`, the IC50 was 0.72 µM. `N#Cc1cccc(NC(=O)Nc2cccc(-c3cccc(-c4nc5ccc(C(F)(F)F)cc5[nH]4)c3)c2)c1` was tested, and the IC50 was 0.22 µM. For `Nc1ncc(Cc2ccc3c(ccc4ccccc43)c2)c(N)n1`, the IC50 was 0.76 µM. For `CCc1c[nH]c2c(N3CCCCC3=O)cc(C(=O)N[C@@H](Cc3ccccc3)[C@H](O)CNCc3cccc(OC)c3)cc12`, the IC50 was 0.17 µM. For `CCCc1cc(Cc2cnc(N)nc2N)cc(CC)c1O`, the IC50 was 1.32 µM. With `COc1ccc(CNC(=O)c2cc3c(=O)n4ccccc4nc3n(CCc3ccccc3)c2=N)cc1` the IC50 was 0.33 µM. `CCN(CC)c1ccc(C(c2ccc(N(CC)CC)cc2)c2ccc([N+](=O)[O-])cc2)cc1` was tested, and the IC50 was 0.95 µM. With `CCC(Cc1cnc2nc(N)nc(N)c2n1)c1ccc(C(=O)N[C@@H](CCC(=O)O)C(=O)O)cc1` (stereo partly specified) the IC50 was 0.04 µM. Work on `CCOc1cc2c(cc1S(=O)(=O)c1ccc(COc3ccc(C(F)(F)F)cc3)cc1)CCN(C)CC2` yielded an IC50 of 1.02 µM. `Cc1noc(C)c1-c1ccc2c(Nc3cccc4c3-c3ccccc3C4=O)c(C(=O)NCc3ccccc3I)cnc2c1` was tested, and the IC50 was 0.63 µM. `c1cc(CNCCN2CCNCC2)cc(-c2cccc(-c3nc4ccccc4[nH]3)c2)c1` showed an IC50 of 0.96 µM. Work on `c1ccc2c(C3CCN(CCCCOc4ccc5c(c4)CCN(CC4CC4)CC5)CC3)c[nH]c2c1` yielded an IC50 of 0.98 µM. Work on `CC(=O)N(C)c1cccc(C(=O)Nc2cccc(-c3cccc(-c4nc5ccc(C(F)(F)F)cc5[nH]4)c3)c2)c1` yielded an IC50 of 0.24 µM. Compound `Cc1nc(N=C(N)N)nc2ccc(C(C)(C)C)cc12` has an IC50 of 0.75 µM. `CCc1cn2c3c(cc(C(=O)N[C@@H](Cc4ccccc4)[C@H](O)CNCc4ccc(C)cc4)cc13)N(C)S(=O)(=O)CC2` was tested, and the IC50 was 0.55 µM. With `CC1CCN(Cc2cccc(C(=O)NCc3ccc(F)c(-c4cccc(CN5CCN[C@@H](C)C5)c4)c3)c2)CC1` the IC50 was 1.46 µM. `COc1cc(Nc2nccc(N3CCC(NC(=O)Nc4ccc5c(c4)OCO5)C3)n2)cc(OC)c1OC` (stereo unspecified) showed an IC50 of 0.76 µM. Compound `O=C(Nc1ccc(OC2CCN(Cc3ccccc3)CC2)c(Cl)c1)c1ccc(F)cc1` has an IC50 of 0.8 µM. With `O=C(NC(CCCN1CCC2(CC1)OCc1ccccc12)c1ccc(Cl)c(Cl)c1)c1cc(C(F)(F)F)cc(C(F)(F)F)c1` (stereo unspecified) the IC50 was 0.54 µM. In the case of `CN1CCc2cc(NS(=O)(=O)c3ccc(-c4ccc(Cl)s4)cc3)c(N3CCCCC3)cc2CC1`, the IC50 is reported as 0.73 µM. `COc1ccc2nccc([C@@H](O)CN3CCC(NCc4cc5c(F)ccc(F)c5[nH]4)CC3)c2n1` was tested, and the IC50 was 0.7 µM. `CC(C)C(=O)ONC1=NC(C)(C)N(OCCCOc2cc(Cl)c(Cl)cc2Cl)C(NOC(=O)C(C)C)=N1` was tested, and the IC50 was 0.03 µM. Work on `O=C(c1ccc(-c2ccccn2)s1)N1CCc2cc3nccc(N4CCN5CCC[C@H]5C4)c3cc21` yielded an IC50 of 0.76 µM. `CN(C)c1cccc2c(S(=O)(=O)Nc3cccc(CCN4CCC(N5CCCCC5)CC4)c3)cccc12` was tested, and the IC50 was 0.98 µM. `Cc1cccc2[nH]c(-c3cccc(-c4ccc(NC(=O)C(C)(C)c5ccccn5)cc4)c3)nc12` gave an IC50 of 0.69 µM. In the case of `Cc1ccc(/C=C/C(=O)NC2CCC(CN3CCC(c4c[nH]c5ccccc45)CC3)CC2)cc1C` (stereo unspecified), the IC50 is reported as 0.82 µM and 0.83 µM. `O=C(C1CCCC1)N1CCOC(CCN2CCC(c3ccccc3)CC2)(c2ccc(Cl)c(Cl)c2)C1` (stereo unspecified) showed an IC50 of 0.94 µM.

— PubChem BioAssay AID2305 (GlaxoSmithKline (GSK), 2010)
